Test results as given in the supplement of paper PMC3974653.
Structures can show the parent of a compound that is named as a salt.

Test system: MTT (mouse pheochromocytoma)
Experiment: IC50 of cell viability (ATP content)
Conditions: (24 or 48 h)
Procedure, shortened: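 Library compounds in DMSO (23 nl by pintool, 8 concentrations, final 0.5 nM to 46 µM) were applied for 24 or 48 hrs to MTT mouse pheochromocytoma cells that had been cultured overnight at 37°C, 5% CO2 in white 1536-well plates. Cell viability was measured by CellTiter-Glo ATP luminescence, read after 15 minutes, with positive-control wells set at 100% and DMSO wells at 0%. A four-parameter logistic fit of the normalised signals yielded the IC50.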

Q: For C#CC[C@H](Cc1cnc2nc(N)nc(N)c2n1)c1ccc(C(=O)NC(CCC(=O)O)C(=O)O)cc1 (stereo partly drawn) [Pralatrexate], which “IC50 of cell viability” value is on record?
A: > 46 µM

Q: For CC1(C)OC2CC(=O)OC[C@@]23C1CC(=O)[C@]1(C)C3CC[C@@]2(C)C(c3ccoc3)OC(=O)C3O[C@@]321 (stereo partly drawn) [LIMONIN], which “IC50 of cell viability” value is on record?
A: > 46 µM

Q: For C[S+](=O)([O-])O.O.O=C(O[C@@H]1C[C@@H]2C[C@@H]3C[C@H](C1)N2CC3=O)c1c[nH]c2ccccc12 [DOLASETRON MESYLATE], which “IC50 of cell viability” value is on record?
A: > 46 µM

Q: With COc1nccnc1N[S+](=O)([O-])c1ccc(N)cc1 [Sulfalene] as the compound, how does the “IC50 of cell viability” value read?
A: > 46 µM

Q: For O=C(O)COc1ccccc1 [Phenoxy acetic acid], which “IC50 of cell viability” value is on record?
A: > 46 µM

Q: For COc1cc2c(cc1OC)[C@@H](c1ccccc1)CN(C)CC2.O=C(O)/C=C\C(=O)O, which “IC50 of cell viability” value is on record?
A: > 46 µM

Q: Which “IC50 of cell viability” value does the source give for C1C[C@@H](\C2=N\CCN2)C3=C(C1)C=CC=C3 [Tetrahydrozoline hydrochloride] here?
A: > 46 µM

Q: With CN[C@H](CC(C)C)C(=O)N[C@H]1C(=O)N[C@@H](CC(N)=O)C(=O)N[C@H]2C(=O)N[C@H]3C(=O)N[C@H](C(=O)N[C@H](C(=O)O)c4cc(O)cc(O)c4-c4cc3ccc4O)[C@H](O)c3ccc(c(Cl)c3)Oc3cc2cc(c3O[C@@H]2OC(CO)[C@@H](O)[C@H](O)[C@H]2O[C@H]2C[C@](C)(N)[C@H](O)[C@H](C)O2)Oc2ccc(cc2Cl)[C@H]1O (stereo partly drawn) [VANCOMYCIN HYDROCHLORIDE] as the compound, how does the “IC50 of cell viability” value read?
A: > 46 µM

Q: Which “IC50 of cell viability” value does the source give for CC/C=C\C/C=C\C/C=C\C/C=C\C/C=C\CCCC(=O)O [EICOSAPENTAENOIC ACID] here?
A: > 46 µM

Q: CN1CCN(CCC(=O)N2c3ccccc3Sc3ccc(C(F)(F)F)cc32)CC1 [Ftormetazine] was tested. Which “IC50 of cell viability” value did it give?
A: > 46 µM

Q: CS(=O)(=O)NC(=O)CCC/C=C\C[C@H]1C(=O)C[C@@H](O)[C@@H]1/C=C/[C@@H](O)COc1ccccc1 [Sulprostone] was tested. Which “IC50 of cell viability” value did it give?
A: > 46 µM

Q: C=CC(N)CCC(=O)O (stereo not drawn) [VIGABATRIN] was tested. Which “IC50 of cell viability” value did it give?
A: > 46 µM

Q: Which “IC50 of cell viability” value does the source give for C=CCN=C=S [Allyl isothiocyanate] here?
A: > 46 µM

Q: Which “IC50 of cell viability” value does the source give for O=C(CCCN1CCC(C(=O)c2ccc(F)cc2)CC1)c1ccc(F)cc1 [Lenperone] here?
A: > 46 µM

Q: For CC(=O)NC(=O)c1ccccc1O [Salacetamida], which “IC50 of cell viability” value is on record?
A: > 46 µM

Q: How did the “IC50 of cell viability” value turn out when CC(N)C12CC3CC(CC(C3)C1)C2 (stereo not drawn) [Rimantadine hydrochloride] was run?
A: > 46 µM

Q: How did the “IC50 of cell viability” value turn out when CCOC(=O)[C@H](CCc1ccccc1)N[C@@H](C)C(=O)N1[C@H](C(=O)O)C[C@H]2CCCC[C@@H]21 [Trandolapril] was run?
A: > 46 µM

Q: For COc1cc(CCN)c(OC)cc1Br, which “IC50 of cell viability” value is on record?
A: > 46 µM

Q: Which “IC50 of cell viability” value does the source give for C[C@]12C=CC(=O)C=C1CC[C@@H]1C2CC[C@]2(C)OC(=O)CCC12 (stereo partly drawn) [Testolactone] here?
A: > 46 µM

Q: O=C1Nc2ccc(Cl)cc2C(c2ccccc2)=NC1O (stereo not drawn) [Oxazepam] was tested. Which “IC50 of cell viability” value did it give?
A: > 46 µM

Q: CN1C(=O)C[C@H](c2ccccc2)C1=O [Phensuximide] was tested. Which “IC50 of cell viability” value did it give?
A: > 46 µM

Q: For CCCCNC(=O)N[S+](=O)([O-])c1ccc(C)cc1 [TOLBUTAMIDE], which “IC50 of cell viability” value is on record?
A: > 46 µM

Q: With CC(=O)O[C@H]1CC[C@]\2(C)[C@@H]3CC[C@@]4(C)[C@H](CCC4=O)[C@@H]3C\C=C2C1 [Dehydroisoandosterone 3-acetate] as the compound, how does the “IC50 of cell viability” value read?
A: > 46 µM

Q: Which “IC50 of cell viability” value does the source give for C\C1=N\C2=C(C=C(Cl)C=C2)[S+]([O-])(=O)N1 [DIAZOXIDE] here?
A: > 46 µM

Q: With OC1\N=C(C2=CC=CC=C2)/C3=CC(=CC=C3NC1=O)Cl (stereo not drawn) [(?)-Oxazepam] as the compound, how does the “IC50 of cell viability” value read?
A: > 46 µM

Q: How did the “IC50 of cell viability” value turn out when NC(=O)Cc1cccc(C(=O)c2ccccc2)c1N [Nepafenac] was run?
A: > 46 µM

Q: For NC(=O)NNc1ccccc1 [PHENICARBAZIDUM], which “IC50 of cell viability” value is on record?
A: > 46 µM

Q: With NC(=O)C1c2ccccc2CCc2ccccc21 [Cyheptamide] as the compound, how does the “IC50 of cell viability” value read?
A: > 46 µM
